Test results taken from ChEMBL document CHEMBL3046098, “Effect of tropine derivatives, antimuscarinic agents, on the growth of Bombyx mori larvae” (1998).
Active and inactive are the calls of the source. No cut-off for these calls is given here.

Key:
Bombyx mori [1] = experiment: Insecticidal activity against Bombyx mori Shunrei x Shogetu fourth-instar larvae assessed as effect on larval growth at 100 ppm administered in diet relative to untreated control; format: functional, organism-based
Bombyx mori [2] = experiment: Effect on feeding in Bombyx mori Shunrei x Shogetu fourth-instar larvae assessed as change in quantity of excrement at 10 to 30 ppm administered in diet relative to untreated control; format: functional, organism-based
Bombyx mori [3] = experiment: Insecticidal activity against Bombyx mori Shunrei x Shogetu fourth-instar larvae assessed as incidence of prolongation of 4th ecdysis at 30 ppm administered in diet relative to untreated control; format: functional
Bombyx mori [4] = experiment: Insecticidal activity against Bombyx mori Shunrei x Shogetu fourth-instar larvae assessed as induction of delay in 4th ecdysis at 100 ug/larva applied daily through topical route (reference value: 4.3 +/- 0.48 days); format: functional
Bombyx mori [5] = experiment: Insecticidal activity against Bombyx mori Shunrei x Shogetu fourth-instar larva assessed as effect on larval molting at 160 ug/larvae upon topial application; format: functional, organism-based
Bombyx mori [6] = experiment: Insecticidal activity against Bombyx mori Shunrei x Shogetu fourth-instar larva assessed as effect on larval growth at 160 ug/larvae upon topial application; format: functional, organism-based
Bombyx mori [7] = experiment: Insecticidal activity against Bombyx mori Shunrei x Shogetu fourth-instar larvae assessed as induction of delay in 4th ecdysis at 10 to 30 ppm administered in diet relative to untreated control; format: functional

Row | Compound | Activity (Bombyx mori [1]) | Activity (Bombyx mori [2]) | Activity (Bombyx mori [3]) [%] | Time (Bombyx mori [4]) [days] | Activity (Bombyx mori [5]) | Activity (Bombyx mori [6]) | Time (Bombyx mori [7]) [days]
1 | O=C(O)CC(c1ccccc1)c1ccccc1 | inactive |  |  |  |  |  | 
2 | CN1C2CC[C@@H]1C[C@@H](OC(=O)C(C)(c1ccccc1)c1ccccc1)C2 (single isomer, unassigned) |  | inactive | 40 | 5.3 | inactive | inactive | 
3 | CN1C2CC[C@@H]1C[C@@H](OC(=O)C(C)(C)C)C2 (single isomer, unassigned) |  |  |  |  | inactive | inactive | 
4 | CN1C2CC[C@@H]1C[C@@H](OC(=O)C(c1ccccc1)c1ccccc1)C2 (single isomer, unassigned) |  |  |  |  | inactive | inactive | 
5 | CN1C2CC[C@@H]1C[C@@H](OC(=O)CC(c1ccccc1)c1ccccc1)C2 (single isomer, unassigned) | inactive |  |  |  | inactive | inactive | 
6 | CN1C2CC[C@@H]1C[C@@H](OC(=O)c1ccc(Cl)cc1Cl)C2 (single isomer, unassigned) |  |  |  |  | inactive | inactive | 
7 | CN1C2CC[C@@H]1C[C@@H](OC(=O)c1ccc3ccccc3c1)C2 (single isomer, unassigned) |  |  |  |  | inactive | inactive | 
8 | CN1[C@@H]2CC[C@H]1C[C@@H](OC(=O)C(CO)c1ccccc1)C2 (stereo not given in full) [ATROPINE] |  | inactive |  | 4.7 |  |  | 1
